{"source": "patent US8034940B2", "about": "“Modulators of glucocorticoid receptor, AP-1, and/or NF-κB activity and use thereof” (Bristol-Myers Squibb Company, priority 2006, dated 2011)", "key": {"[1]": {"target": "T1, human full-length glucocorticoid receptor (Homo sapiens, UniProt P04150)", "T1 sequence (P04150 1-777)": "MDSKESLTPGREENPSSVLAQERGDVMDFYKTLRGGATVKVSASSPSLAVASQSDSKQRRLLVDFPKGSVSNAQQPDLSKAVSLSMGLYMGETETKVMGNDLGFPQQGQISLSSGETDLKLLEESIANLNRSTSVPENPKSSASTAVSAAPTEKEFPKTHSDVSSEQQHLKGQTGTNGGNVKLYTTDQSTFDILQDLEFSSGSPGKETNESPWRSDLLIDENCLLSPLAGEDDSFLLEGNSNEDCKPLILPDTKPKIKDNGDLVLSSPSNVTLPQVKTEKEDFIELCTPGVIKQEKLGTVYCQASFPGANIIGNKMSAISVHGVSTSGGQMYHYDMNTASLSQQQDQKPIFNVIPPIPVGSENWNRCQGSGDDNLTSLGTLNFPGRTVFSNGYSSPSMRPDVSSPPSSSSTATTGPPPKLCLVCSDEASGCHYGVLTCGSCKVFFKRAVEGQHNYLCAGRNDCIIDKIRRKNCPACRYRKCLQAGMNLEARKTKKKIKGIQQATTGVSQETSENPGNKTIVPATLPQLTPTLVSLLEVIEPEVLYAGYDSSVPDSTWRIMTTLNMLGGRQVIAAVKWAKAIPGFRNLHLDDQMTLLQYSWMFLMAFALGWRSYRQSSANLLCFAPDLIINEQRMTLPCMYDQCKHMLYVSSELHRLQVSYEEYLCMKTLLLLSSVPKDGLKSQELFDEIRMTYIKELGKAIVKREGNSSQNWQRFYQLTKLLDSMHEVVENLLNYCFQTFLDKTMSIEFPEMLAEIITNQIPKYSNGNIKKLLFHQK", "experiment": "Glucocorticoid Receptor Binding Assay (II), fluorescence polarization, FITC-dexamethasone", "parameters": "recombinantly expressed human full-length glucocorticoid receptor; purchased PanVera Co., Madison P2816", "method": "Glucocorticoid Receptor Binding Assay (II)^b\nIn order to measure the binding of compounds on the glucocorticoid receptor a commercially available kit was used (Glucocorticoid receptor competitor assay kit, PanVera Co., Madison, W1, P2816). Briefly, a cell lysate containing recombinantly expressed human full-length glucocorticoid receptor was mixed with a fluorescently labeled glucocorticoid (4 nM FITC-dexamethasone) plus or minus test molecule. After one hour at room temperature, the fluorescence polarization (FP) of the samples were measured. […] Test molecules were analyzed in the concentration range from 0.1 nM to 40 μM."}, "[2]": {"target": "T1, human full-length glucocorticoid receptor", "experiment": "Glucocorticoid Receptor Binding Assay (I), fluorescence polarization, Fluormone GS Red", "parameters": "purified human recombinant full-length glucocorticoid receptor; purchased Invitrogen Part #2893", "summary_of_the_method": "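Fluorescence polarization competition: 2 nM purified full-length recombinant receptor with 1 nM Fluormone GS Red tracer, ±test compound over 8.5E-05 to 5 μM. Incubation was 2 h at room temperature in the dark before reading FP.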"}, "[3]": {"conditions": "GR Binding Assay (II), read-out: GR (Ki, nM) (GR Binding Assay (II))"}, "[4]": {"conditions": "GR Binding Assay (I), read-out: GR (Ki, nM) (GR Binding Assay (I))"}}}
{"smiles": "Cc1nc(NC(=O)C(C)(C)[C@@H]2c3ccccc3Oc3cc(O)ccc32)sc1C", "note": "[Example 91]", "values": [{"measurement": "Ki", "setting": "[1]; [3]", "result": 2550, "unit": "nM"}]}
{"smiles": "Cc1cnc(NC(=O)C(C)(C)[C@@H]2c3ccccc3Oc3cc(O)ccc32)s1", "note": "[Example 92]", "values": [{"measurement": "Ki", "setting": "[1]; [3]", "result": 1200, "unit": "nM"}]}
{"smiles": "Cc1csc(NC(=O)C(C)(C)[C@@H]2c3ccccc3Oc3cc(O)ccc32)n1", "note": "[Example 93]", "values": [{"measurement": "Ki", "setting": "[1]; [3]", "result": 1270, "unit": "nM"}]}
{"smiles": "CC(C)(C(=O)Nc1nccs1)[C@@H]1c2ccccc2Oc2cc(O)ccc21", "note": "[Example 94]", "values": [{"measurement": "Ki", "setting": "[1]; [3]", "result": 404, "unit": "nM"}]}
{"smiles": "CCOC(=O)c1csc(NC(=O)C(C)(C)C2c3ccccc3Oc3cc(O)ccc32)n1", "note": "(stereo not shown) [Example 96]", "values": [{"measurement": "Ki", "setting": "[1]; [3]", "result": 22.1, "unit": "nM"}]}
{"smiles": "CCOC(=O)c1csc(NC(=O)C(C)(C)C2c3ccccc3Oc3cc(OCOCCOC)ccc32)n1", "note": "(stereo not shown) [Example 97]", "values": [{"measurement": "Ki", "setting": "[1]; [3]", "result": 296, "unit": "nM"}]}
{"smiles": "COCCOCOc1ccc2c(c1)Oc1ccccc1C2C(C)(C)C(=O)Nc1nccs1", "note": "(stereo not shown) [Example 98]", "values": [{"measurement": "Ki", "setting": "[1]; [3]", "result": 88.7, "unit": "nM"}]}
{"smiles": "COC(=O)c1csc(NC(=O)C(C)(C)C2c3ccccc3Oc3cc(O)ccc32)n1", "note": "(stereo not shown) [Example 99]", "values": [{"measurement": "Ki", "setting": "[1]; [3]", "result": 18.3, "unit": "nM"}]}
{"smiles": "CC(C)(C(=O)Nc1nncs1)[C@H]1c2ccccc2Oc2cc(C#N)ccc21", "note": "[Example 112]", "values": [{"measurement": "Ki", "setting": "[1]; [3]", "result": 9.3, "unit": "nM"}]}
{"smiles": "CNc1ccc2c(n1)Oc1ccccc1C2C(C)(C)C(=O)Nc1nccs1", "note": "(stereo not shown) [Example 127]", "values": [{"measurement": "Ki", "setting": "[1]; [3]", "result": 29.7, "unit": "nM"}]}
{"smiles": "CC(C)(C(=O)Nc1nncs1)[C@@H]1c2ccccc2Oc2nc(N3CCCCC3)ccc21", "note": "[Example 134]", "values": [{"measurement": "Ki", "setting": "[1]; [3]", "result": 444, "unit": "nM"}]}
{"smiles": "CC(C)(C(=O)Nc1nncs1)[C@@H]1c2ccccc2Oc2nc(N3CCC4(CC3)OCCO4)ccc21", "note": "[Example 135]", "values": [{"measurement": "Ki", "setting": "[1]; [3]", "result": 537, "unit": "nM"}]}
{"smiles": "CC(C)(C(=O)Nc1nncs1)[C@@H]1c2ccccc2Oc2nc(N3CCCC3)ccc21", "note": "[Example 137]", "values": [{"measurement": "Ki", "setting": "[1]; [3]", "result": 221, "unit": "nM"}]}
{"smiles": "CC(C)(C(=O)Nc1nncs1)[C@H]1c2ccccc2Oc2nc(N3CCCCC3)ccc21", "note": "[Example 138]", "values": [{"measurement": "Ki", "setting": "[1]; [3]", "result": 11.4, "unit": "nM"}]}
{"smiles": "C[C@H](Nc1ccc2c(n1)Oc1ccccc1[C@@H]2C(C)(C)C(=O)Nc1nncs1)c1ccccc1", "note": "[Example 142]", "values": [{"measurement": "Ki", "setting": "[1]; [3]", "result": 156, "unit": "nM"}]}
{"smiles": "C[C@@H](Nc1ccc2c(n1)Oc1ccccc1[C@@H]2C(C)(C)C(=O)Nc1nncs1)c1ccccc1", "note": "[Example 143]", "values": [{"measurement": "Ki", "setting": "[1]; [3]", "result": 744, "unit": "nM"}]}
{"smiles": "COC[C@H]1CCCN1c1ccc2c(n1)Oc1ccccc1[C@@H]2C(C)(C)C(=O)Nc1nncs1", "note": "[Example 145]", "values": [{"measurement": "Ki", "setting": "[1]; [3]", "result": 1160, "unit": "nM"}]}
{"smiles": "CC(C)(C(=O)Nc1nncs1)[C@H]1c2ccccc2Oc2nc(N3CCCCCC3)ccc21", "note": "[Example 146]", "values": [{"measurement": "Ki", "setting": "[1]; [3]", "result": 37, "unit": "nM"}]}
{"smiles": "CC(C)(C(=O)Nc1nncs1)[C@H]1c2ccccc2Oc2nc(N3CCCC(c4ccccc4)C3)ccc21", "note": "(stereo partly shown) [Example 147]", "values": [{"measurement": "Ki", "setting": "[1]; [3]", "result": 4030, "unit": "nM"}]}
{"smiles": "CC(C)(C(=O)Nc1nccs1)[C@H]1c2ccccc2Oc2nc(N3CCCCC3)ccc21", "note": "[Example 148]", "values": [{"measurement": "Ki", "setting": "[1]; [3]", "result": 11.1, "unit": "nM"}]}
{"smiles": "CN(C)c1ccc2c(n1)Oc1ccccc1[C@@H]2C(C)(C)C(=O)Nc1nncs1", "note": "[Example 149]", "values": [{"measurement": "Ki", "setting": "[1]; [3]", "result": 11, "unit": "nM"}]}
{"smiles": "CC1CCCN(c2ccc3c(n2)Oc2ccccc2[C@@H]3C(C)(C)C(=O)Nc2nncs2)C1", "note": "(stereo partly shown) [Example 150]", "values": [{"measurement": "Ki", "setting": "[1]; [3]", "result": 26.9, "unit": "nM"}]}
{"smiles": "CC(C)(C(=O)Nc1nncs1)[C@H]1c2ccccc2Oc2nc(NC(=O)c3ccccc3)ccc21", "note": "[Example 152]", "values": [{"measurement": "Ki", "setting": "[1]; [3]", "result": 10.9, "unit": "nM"}]}
{"smiles": "CCCCNc1ccc2c(c1)Oc1ncccc1C2C(C)(C)C(=O)Nc1nccs1", "note": "(stereo not shown) [Example 155]", "values": [{"measurement": "Ki", "setting": "[1]; [3]", "result": 31.8, "unit": "nM"}]}
{"smiles": "CC(C)Nc1ccc2c(n1)Oc1ccccc1C2C(C)(C)C(=O)Nc1nccs1", "note": "(stereo not shown) [Example 157]", "values": [{"measurement": "Ki", "setting": "[1]; [3]", "result": 186, "unit": "nM"}]}
{"smiles": "CC(C)(C(=O)Nc1nncs1)[C@H]1c2ccccc2Oc2nc(N3CCC(=O)CC3)ccc21", "note": "[Example 161]", "values": [{"measurement": "Ki", "setting": "[1]; [3]", "result": 36.6, "unit": "nM"}]}
{"smiles": "COc1ccc(-c2ccc3c(n2)Oc2ccccc2[C@H]3C(C)(C)C(=O)Nc2nncs2)cc1", "note": "[Example 162]", "values": [{"measurement": "Ki", "setting": "[1]; [3]", "result": 256, "unit": "nM"}]}
{"smiles": "CC(C)(C(=O)Nc1nncs1)[C@H]1c2ccccc2Oc2nc(-c3ccccc3)ccc21", "note": "[Example 171]", "values": [{"measurement": "Ki", "setting": "[2]", "result": 7.15, "unit": "nM"}, {"measurement": "Ki", "setting": "[1]; [3]", "result": 10.2, "unit": "nM"}]}
{"smiles": "CC(C)(C(=O)Nc1nncs1)[C@H]1c2ccccc2Oc2nc(-c3cccc4ccccc34)ccc21", "note": "[Example 177]", "values": [{"measurement": "Ki", "setting": "[2]; [4]", "result": "> 1150", "unit": "nM"}, {"measurement": "Ki", "setting": "[1]; [3]", "result": 460, "unit": "nM"}]}
{"smiles": "CC(C)(C(=O)Nc1nncs1)[C@H]1c2ccccc2Oc2nc(-c3ccc(Cl)cc3)ccc21", "note": "[Example 178]", "values": [{"measurement": "Ki", "setting": "[2]; [4]", "result": 10.6, "unit": "nM"}, {"measurement": "Ki", "setting": "[1]; [3]", "result": 4.7, "unit": "nM"}]}
{"smiles": "Cc1cccc(-c2ccc3c(n2)Oc2ccccc2[C@@H]3C(C)(C)C(=O)Nc2nncs2)c1", "note": "[Example 179]", "values": [{"measurement": "Ki", "setting": "[2]", "result": 64.6, "unit": "nM"}, {"measurement": "Ki", "setting": "[1]", "result": 37.9, "unit": "nM"}]}
{"smiles": "CC(C)(C(=O)Nc1nncs1)[C@H]1c2ccccc2Oc2nc(-c3ccc4ccccc4c3)ccc21", "note": "[Example 186]", "values": [{"measurement": "Ki", "setting": "[2]; [4]", "result": 386, "unit": "nM"}, {"measurement": "Ki", "setting": "[1]; [3]", "result": 84.6, "unit": "nM"}]}
{"smiles": "CC(C)(C(=O)Nc1nncs1)[C@H]1c2ccccc2Oc2nc(-c3cccnc3)ccc21", "note": "[Example 187]", "values": [{"measurement": "Ki", "setting": "[2]; [4]", "result": 33.1, "unit": "nM"}, {"measurement": "Ki", "setting": "[1]; [3]", "result": 34.4, "unit": "nM"}]}
{"smiles": "COC(=O)c1ccc(-c2ccc3c(n2)Oc2ccccc2[C@@H]3C(C)(C)C(=O)Nc2nncs2)cc1", "note": "[Example 192]", "values": [{"measurement": "Ki", "setting": "[2]; [4]", "result": 12.3, "unit": "nM"}, {"measurement": "Ki", "setting": "[1]; [3]", "result": 13.1, "unit": "nM"}]}
{"smiles": "CC(C)(C(=O)Nc1nncs1)[C@H]1c2ccccc2Oc2nc(-c3ccc(C#N)cc3)ccc21", "note": "[Example 203]", "values": [{"measurement": "Ki", "setting": "[2]; [4]", "result": 4.61, "unit": "nM"}, {"measurement": "Ki", "setting": "[1]; [3]", "result": 13.1, "unit": "nM"}]}
